This experiment deals with T1, human histamine H3 receptor (Homo sapiens, UniProt Q9Y5N1).
T1 construct: expressed in transfected cells; host or cells: CHO K1 cells carrying the pSwitch regulatory plasmid, transfected with pGeneH3, induced with mifepristone; clone 3H3
Put plainly: Histamine H3 functional antagonist assay ([35S]GTPγS SPA on membranes). Format: biochemical. The note with it: membranes of CHO K1 cells expressing human histamine H3; histamine 0.3 μM; read-out: antagonism (pKb) (converted). An excerpt:
A membrane preparation containing histamine H3 receptors may be prepared in accordance with the following procedures:
(i) Generation of Histamine H3 Cell Line
DNA encoding the human histamine H3 gene (Huvar, A. et al. (1999) Mol. Pharmacol. 55(6), 1101-1107) was cloned into a holding vector, pCDNA3.1 TOPO (InVitrogen) and its cDNA was isolated from this vector by restriction digestion of plasmid DNA with the enzymes BamH1 and Not-1 and ligated into the inducible expression vector pGene (InVitrogen) digested with the same enzymes. The GeneSwitch™ system (a system where in transgene expression is switched off in the absence of an inducer and switched on in the presence of an inducer) was performed as described in U.S. Pat. Nos. 5,364,791; 5,874,534; and 5,935,934. Ligated DNA was transformed into competent DH5α E. coli host bacterial cells and plated onto Luria Broth (LB) agar containing Zeocin™ (an antibiotic which allows the selection of cells expressing the sh ble gene which is present on pGene and pSwitch) at 50 μg ml^−1. Colonies containing the re-ligated plasmid were identified by restriction analysis. DNA for transfection into mammalian cells was prepared from 250 ml cultures of the host bacterium containing the pGeneH3 plasmid and isolated using a DNA preparation kit (Qiagen Midi-Prep) as per manufacturers guidelines (Qiagen).
CHO K1 cells previously transfected with the pSwitch regulatory plasmid (InVitrogen) were seeded at 2×10e6 cells per T75 flask in Complete Medium, containing Hams F12 (GIBCOBRL, Life Technologies) medium supplemented with 10% v/v dialysed foetal bovine serum, L-glutamine, and hygromycin (100 μg ml^−1), 24 hours prior to use. Plasmid DNA was transfected into the cells using Lipofectamine plus according to the manufacturers guidelines (InVitrogen). 48 hours post transfection cells were placed into complete medium supplemented with 500 μg ml^−1 Zeocin™.
10-14 days post selection 10 nM Mifepristone (InVitrogen), was added to the culture medium to induce the expression of the receptor. 18 hours post induction cells were detached from the flask using ethylenediamine tetra-acetic acid (EDTA; 1:5000; InVitrogen), following several washes with phosphate buffered saline pH 7.4 and resuspended in Sorting Medium containing Minimum Essential Medium (MEM), without phenol red, and supplemented with Earles salts and 3% Foetal Clone II (Hyclone). Approximately 1×10e7 cells were examined for receptor expression by staining with a rabbit polyclonal antibody, 4a, raised against the N-terminal domain of the histamine H3 receptor, incubated on ice for 60 minutes, followed by two washes in sorting medium. Receptor bound antibody was detected by incubation of the cells for 60 minutes on ice with a goat anti rabbit antibody, conjugated with Alexa 488 fluorescence marker (Molecular Probes). Following two further washes with Sorting Medium, cells were filtered through a 50 μm Filcon™ (BD Biosciences) and then analysed on a FACS Vantage SE Flow Cytometer fitted with an Automatic Cell Deposition Unit. Control cells were non-induced cells treated in a similar manner. Positively stained cells were sorted as single cells into 96-well plates, containing Complete Medium containing 500 μg ml^−1 Zeocin™ and allowed to expand before reanalysis for receptor expression via antibody and ligand binding studies. One clone, 3H3, was selected for membrane preparation.
(ii) Membrane Preparation from Cultured Cells
All steps of the protocol are carried out at 4° C. and with pre-cooled reagents. The cell pellet is resuspended in 10 volumes of buffer A2 containing 50 mM N-2-hydroxyethylpiperazine-N′-2-ethanesulfonic acid (HEPES) (pH 7.40) supplemented with 10e-4M leupeptin (acetyl-leucyl-leucyl-arginal; Sigma L2884), 25 μg/ml bacitracin (Sigma B0125), 1 mM ethylenediamine tetra-acetic acid (EDTA), 1 mM phenylmethylsulfonyl fluoride (PMSF) and 2×10e-6M pepstain A (Sigma). […]
On the technique in general: GTPγS resists hydrolysis and so accumulates on activated G proteins.

This note sets out measurements from US20070060566A1, “Benzazepine derivatives as histamine h3 antagonists” (priority 2003, published 2007).

T1 sequence (Q9Y5N1 whole entry): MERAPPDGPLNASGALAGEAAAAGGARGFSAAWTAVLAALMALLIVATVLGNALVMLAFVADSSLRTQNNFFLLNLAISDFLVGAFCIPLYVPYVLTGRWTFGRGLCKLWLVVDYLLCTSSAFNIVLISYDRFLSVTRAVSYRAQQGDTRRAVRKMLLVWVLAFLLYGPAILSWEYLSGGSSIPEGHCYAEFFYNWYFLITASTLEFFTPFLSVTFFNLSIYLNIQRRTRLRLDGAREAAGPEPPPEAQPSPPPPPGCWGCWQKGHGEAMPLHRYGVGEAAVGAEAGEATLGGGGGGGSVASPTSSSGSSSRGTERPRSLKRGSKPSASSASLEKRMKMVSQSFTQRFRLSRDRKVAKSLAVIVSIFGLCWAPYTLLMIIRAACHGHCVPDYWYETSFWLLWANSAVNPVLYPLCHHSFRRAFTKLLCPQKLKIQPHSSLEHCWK

For `O=C(Nc1ccc2c(c1)CCN(C1CCC1)CC2)c1ccc(N2CCOCC2)nc1` [Example 44, N-(3-Cyclobutyl-2,3,4,5-tetrahydro-1H-3-benzazepin-7-yl)-6-(4-morpholinyl)-3-pyridinecarboxamide], the Kb is less than 0.316 nM.
For `Cc1ccc(C(=O)Nc2ccc3c(c2)CCN(C2CCC2)CC3)cn1` [Example 37, N-(3-Cyclobutyl-2,3,4,5-tetrahydro-1H-3-benzazepin-7-yl)-6-methylnicotinamide] the value was less than 0.316 nM; for `O=C(Nc1ccc2c(c1)CCN(C1CCC1)CC2)c1cnc(N2CCCCC2)cn1` [Example 113, N-(3-Cyclobutyl-2,3,4,5-tetrahydro-1H-3-benzazepin-7-yl)-5-(1-piperidinyl)-2-pyrazinecarboxamide], less than 0.316 nM.
For `O=C(Nc1ccc2c(c1)CCN(C1CCC1)CC2)c1ccc(-n2cnnn2)cc1` [Example 33, N-(3-Cyclobutyl-2,3,4,5-tetrahydro-1H-3-benzazepin-7-yl)-4-(1H-tetrazol-1-yl)benzamide] the value was less than 0.316 nM.
For `N#Cc1ccc(C(=O)Nc2ccc3c(c2)CCN(C2CCC2)CC3)cc1` [Example 2, 4-Cyano-N-(3-cyclobutyl-2,3,4,5-tetrahydro-1H-3-benzazepin-7-yl)benzamide] the value was less than 0.316 nM; for `O=C(Nc1ccc2c(c1)CCN(C1CCC1)CC2)c1ccc(-c2cncnc2)cc1` [Example 29, N-(3-Cyclobutyl-2,3,4,5-tetrahydro-1H-3-benzazepin-7-yl)-4-(5-pyrimidinyl)benzamide], less than 0.316 nM.
As to `O=C(Nc1ccc2c(c1)CCN(C1CCC1)CC2)c1ccc(-c2ccccn2)cc1` [Example 8, N-(3-Cyclobutyl-2,3,4,5-tetrahydro-1H-3-benzazepin-7-yl)-4-(2-pyridinyl)benzamide], the Kb is less than 0.316 nM.
For `O=C(Nc1ccc2c(c1)CCN(C1CCC1)CC2)c1ccc(N2CCNC2=O)cc1` [Example 88, N-(3-Cyclobutyl-2,3,4,5-tetrahydro-1H-3-benzazepin-7-yl)-4-(2-oxo-1-imidazolidinyl)benzamide] the value was less than 0.316 nM.
For `O=C(Nc1ccc2c(c1)CCN(C1CCC1)CC2)N1CCCc2ccccc21` [Example 148, N-(3-Cyclobutyl-2,3,4,5-tetrahydro-1H-3-benzazepin-7-yl)-3,4-dihydro-1(2H)-quinolinecarboxamide] the value was less than 0.316 nM; for `N#Cc1ccc(-c2ccc(C(=O)Nc3ccc4c(c3)CCN(C3CCC3)CC4)cc2)cn1` [Example 34, 4-(6-Cyano-3-pyridinyl)-N-(3-cyclobutyl-2,3,4,5-tetrahydro-1H-3-benzazepin-7-yl)benzamide], less than 0.316 nM; for `N#Cc1ccc(-c2ccc(C(=O)Nc3ccc4c(c3)CCN(C3CCC3)CC4)cn2)cc1` [Example 98, 6-(4-Cyanophenyl)-N-(3-cyclobutyl-2,3,4,5-tetrahydro-1H-3-benzazepin-7-yl)-3-pyridinecarboxamide], less than 0.316 nM.
